Experimental data as given in PubChem BioAssay (NCI).
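GI50: concentration for 50% inhibition of growth. Definition used: TGI = concentration required for complete inhibition of growth.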

How the values were obtained:
Test in all cases: inhibition of tumour cell growth, NCI panel, 384-well format
[1] = system: RPMI-8226 leukemia
[2] = system: SK-MEL-2 melanoma
[3] = system: MDA-MB-435 melanoma
[4] = system: SK-MEL-28 melanoma
[5] = system: HS 578T breast
[6] = system: 786-0 renal
[7] = system: SF-295 CNS
[8] = system: NCI-H226 lung
[9] = system: SK-MEL-5 melanoma
[10] = system: MOLT-4 leukemia
[11] = system: MDA-MB-468 breast
[12] = system: NCI-H460 NSCLC
[13] = system: U251 glioblastoma
[14] = system: MDA-MB-231 breast
[15] = system: TK-10 renal
[16] = system: IGROV1 ovarian
[17] = system: BT-549 breast
[18] = system: NCI-H322M lung
[19] = system: UO-31 renal
[20] = system: DU-145 prostate
[21] = system: HOP-62 NSCLC
[22] = system: T-47D breast
[23] = system: HCT-15 colon
[24] = system: NCI-H522 lung
[25] = system: HOP-92 NSCLC
[26] = system: RXF 393 renal
[27] = system: M14 melanoma
[28] = system: SF-268 CNS
[29] = system: PC-3 prostate
[30] = system: OVCAR-4 ovarian
[31] = system: OVCAR-8 ovarian
[32] = system: HL-60(TB) leukemia
[33] = system: A498 renal
[34] = system: SF-539 CNS
[35] = system: HCC-2998 colon
[36] = system: KM12 colon
[37] = system: UACC-257 melanoma
[38] = system: NCI/ADR-RES ovarian
[39] = system: CAKI-1 renal
[40] = system: LOX IMVI melanoma
[41] = system: ACHN renal
[42] = system: SN12C renal
[43] = system: A549 NSCLC
[44] = system: MALME-3M melanoma
[45] = system: MCF7 breast
[46] = system: UACC-62 melanoma
[47] = system: SW-620 colon
[48] = system: COLO 205 colon
[49] = system: K-562 leukemia
[50] = system: HT29 colon
[51] = system: HCT-116 colon
[52] = system: OVCAR-3 ovarian
[53] = system: SK-OV-3 ovarian
[54] = system: OVCAR-5 ovarian
[55] = system: EKVX NSCLC
[56] = system: SNB-19 CNS
[57] = system: SNB-75 CNS
[58] = system: SR leukemia
[59] = system: NCI-H23 lung

C[C@@H]1C[C@H](N)C[C@H](c2ccncc2NC(=O)c2ccc(F)c(-c3c(F)cccc3F)n2)C1
GI50 [1]: 0.0942 µM
TGI [1]: 0.674 µM
GI50 [2]: 13.4 µM
TGI [2]: 26.2 µM
GI50 [3]: 11.5 µM
TGI [3]: 24 µM
GI50 [4]: 5.54 µM
TGI [4]: 10.8 µM
GI50 [5]: 10.2 µM
TGI [5]: 21.9 µM
GI50 [6]: 6.99 µM
TGI [6]: 19.5 µM
GI50 [7]: 16.9 µM
TGI [7]: 30.6 µM
GI50 [8]: 4.79 µM
TGI [8]: 20.8 µM
GI50 [9]: 1.74 µM
TGI [9]: 4.28 µM
GI50 [10]: 3.21 µM
TGI [10]: 12.5 µM
GI50 [11]: 3.42 µM
TGI [11]: 10.2 µM
GI50 [12]: 6.02 µM
TGI [12]: 17.2 µM
GI50 [13]: 10.5 µM
TGI [13]: 22.4 µM
GI50 [14]: 13.3 µM
TGI [14]: 26.1 µM
GI50 [15]: 12.5 µM
TGI [15]: 25.1 µM
GI50 [16]: 7.37 µM
TGI [16]: 19.9 µM
GI50 [17]: 5.53 µM
TGI [17]: 19.2 µM
GI50 [18]: 14.4 µM
TGI [18]: 27.5 µM
GI50 [19]: 13.5 µM
TGI [19]: 26.4 µM
GI50 [20]: 15.7 µM
TGI [20]: 29.3 µM
GI50 [21]: 12.8 µM
TGI [21]: 25.5 µM
GI50 [22]: 4.76 µM
TGI [22]: 17.7 µM
GI50 [23]: 9.74 µM
TGI [23]: 23.8 µM
GI50 [24]: 12.5 µM
TGI [24]: 25.1 µM
GI50 [25]: 6.4 µM
TGI [25]: 19.7 µM
GI50 [26]: 3.18 µM
TGI [26]: 11.9 µM
GI50 [27]: 3.43 µM
TGI [27]: 7.63 µM
GI50 [28]: 5.86 µM
TGI [28]: 15.9 µM
GI50 [29]: 4.76 µM
TGI [29]: 17.3 µM
GI50 [30]: 17.2 µM
TGI [30]: 31.1 µM
GI50 [31]: 14.3 µM
TGI [31]: 27.5 µM
GI50 [32]: 3.6 µM
TGI [32]: 16.3 µM
GI50 [33]: 4.81 µM
TGI [33]: 18.1 µM
GI50 [34]: 7.93 µM
TGI [34]: 20.8 µM
GI50 [35]: 1.9 µM
TGI [35]: 4.02 µM
GI50 [36]: 10.4 µM
TGI [36]: 22.3 µM
GI50 [37]: 1.65 µM
TGI [37]: 3.03 µM
GI50 [38]: 16.7 µM
TGI [38]: 30.6 µM
GI50 [39]: 3.78 µM
TGI [39]: 17.2 µM
GI50 [40]: 4.22 µM
TGI [40]: 15.6 µM
GI50 [41]: 13.8 µM
TGI [41]: 26.9 µM
GI50 [42]: 14.4 µM
TGI [42]: 27.6 µM
GI50 [43]: 12.5 µM
TGI [43]: 25.5 µM
GI50 [44]: 1.49 µM
TGI [44]: 3.11 µM
GI50 [45]: 7.02 µM
TGI [45]: 20.3 µM
GI50 [46]: 8.71 µM
TGI [46]: 22 µM
GI50 [47]: 14.3 µM
TGI [47]: 27.4 µM
GI50 [48]: 4.64 µM
TGI [48]: 11.9 µM
GI50 [49]: 2.17 µM
TGI [49]: 10.9 µM
GI50 [50]: 5.3 µM
TGI [50]: 14.9 µM
GI50 [51]: 7.07 µM
TGI [51]: 19.9 µM
GI50 [52]: 11.6 µM
TGI [52]: 23.9 µM
GI50 [53]: 14.3 µM
TGI [53]: 27.4 µM
GI50 [54]: 11.7 µM
TGI [54]: 24 µM
GI50 [55]: 6.36 µM
TGI [55]: 19.3 µM
GI50 [56]: 15.8 µM
TGI [56]: 29.3 µM
GI50 [57]: 7.54 µM
TGI [57]: 21.2 µM
GI50 [58]: 1.76 µM
TGI [58]: 3.56 µM
GI50 [59]: 14.5 µM
TGI [59]: 27.7 µM
